Results as given in ChEMBL document CHEMBL1201862, “PubChem BioAssay data set” (2004).
The source made the active and inactive calls.

Experiments:
[1] = target: T1, Short transient receptor potential channel 4 (Mus musculus, UniProt Q9QUQ5); assay: block of DAMGO-driven TRPC4 calcium entry – cell-based, HEK293 TRPC4/mu-opioid, Fluo-4 calcium, dose response (AID 434942); assay type: functional;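 note: potency of inhibitors blocking the TRPC4 calcium response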
T1 sequence (Q9QUQ5 whole entry): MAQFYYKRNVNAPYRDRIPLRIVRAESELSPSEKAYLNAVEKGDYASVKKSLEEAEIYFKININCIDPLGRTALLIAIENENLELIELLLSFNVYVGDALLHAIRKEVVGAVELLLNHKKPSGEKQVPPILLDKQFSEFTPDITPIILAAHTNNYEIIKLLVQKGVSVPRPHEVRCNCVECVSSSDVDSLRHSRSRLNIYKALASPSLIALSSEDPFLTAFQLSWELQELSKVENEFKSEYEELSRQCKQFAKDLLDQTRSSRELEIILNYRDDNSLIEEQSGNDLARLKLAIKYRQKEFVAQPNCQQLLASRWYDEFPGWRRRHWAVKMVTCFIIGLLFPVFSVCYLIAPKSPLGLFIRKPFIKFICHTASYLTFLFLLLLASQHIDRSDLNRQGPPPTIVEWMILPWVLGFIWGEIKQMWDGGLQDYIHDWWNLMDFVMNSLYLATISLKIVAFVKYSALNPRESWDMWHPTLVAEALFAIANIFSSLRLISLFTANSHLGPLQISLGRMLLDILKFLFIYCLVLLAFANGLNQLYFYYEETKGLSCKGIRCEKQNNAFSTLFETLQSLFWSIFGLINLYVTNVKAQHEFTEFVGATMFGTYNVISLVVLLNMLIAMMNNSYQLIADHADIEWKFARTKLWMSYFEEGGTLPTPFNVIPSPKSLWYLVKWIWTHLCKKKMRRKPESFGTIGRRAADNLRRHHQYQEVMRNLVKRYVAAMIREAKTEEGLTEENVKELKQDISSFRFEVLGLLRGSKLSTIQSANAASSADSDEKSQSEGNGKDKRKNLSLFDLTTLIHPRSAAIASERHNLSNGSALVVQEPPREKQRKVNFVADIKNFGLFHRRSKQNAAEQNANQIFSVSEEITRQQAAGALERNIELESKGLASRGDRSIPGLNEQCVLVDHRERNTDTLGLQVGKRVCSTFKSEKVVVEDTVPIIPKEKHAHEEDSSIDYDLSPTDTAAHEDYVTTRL

[2] = target: T2, DNA repair and recombination protein RAD54-like (Homo sapiens, UniProt Q92698); assay: RAD54 Holliday junction migration blockers – biochemical, fluorescence, cherry-picked samples, dose series, confirmation (AID 651657); assay type: functional
T2 sequence (Q92698 whole entry): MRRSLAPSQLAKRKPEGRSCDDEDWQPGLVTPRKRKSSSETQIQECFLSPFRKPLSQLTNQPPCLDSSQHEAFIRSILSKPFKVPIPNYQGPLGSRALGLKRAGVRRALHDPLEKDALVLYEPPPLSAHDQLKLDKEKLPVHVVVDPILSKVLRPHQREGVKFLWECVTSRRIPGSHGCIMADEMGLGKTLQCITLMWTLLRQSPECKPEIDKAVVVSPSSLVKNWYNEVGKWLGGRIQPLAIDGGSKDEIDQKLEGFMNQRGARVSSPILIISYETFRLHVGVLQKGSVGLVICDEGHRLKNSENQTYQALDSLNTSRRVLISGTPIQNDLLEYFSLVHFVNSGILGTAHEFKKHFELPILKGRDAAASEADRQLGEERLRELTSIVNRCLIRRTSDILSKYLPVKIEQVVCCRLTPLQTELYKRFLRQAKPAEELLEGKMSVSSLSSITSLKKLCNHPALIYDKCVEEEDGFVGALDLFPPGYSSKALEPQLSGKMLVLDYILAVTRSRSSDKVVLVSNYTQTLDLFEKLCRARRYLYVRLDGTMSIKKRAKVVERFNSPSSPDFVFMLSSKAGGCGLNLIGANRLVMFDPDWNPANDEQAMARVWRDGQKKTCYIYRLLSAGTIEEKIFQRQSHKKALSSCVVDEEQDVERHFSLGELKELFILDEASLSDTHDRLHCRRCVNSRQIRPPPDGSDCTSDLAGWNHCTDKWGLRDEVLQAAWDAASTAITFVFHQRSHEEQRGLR

[3] = target: T3, Heat shock factor protein 1 (Mus musculus, UniProt P38532); assay: enhancement of HSF1-driven luciferase signal – cell-based, NIH3T3, luminescence, dose retest, confirmation (AID 435004); assay type: functional;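 note: stress induced by proteasome inhibitor MG132 added 30 min after compound; luciferase reporter driven by HSF1 response element in NIH3T3 cells; actives raise luminescence as potentiators of the MG132 stress response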
T3 sequence (P38532 whole entry): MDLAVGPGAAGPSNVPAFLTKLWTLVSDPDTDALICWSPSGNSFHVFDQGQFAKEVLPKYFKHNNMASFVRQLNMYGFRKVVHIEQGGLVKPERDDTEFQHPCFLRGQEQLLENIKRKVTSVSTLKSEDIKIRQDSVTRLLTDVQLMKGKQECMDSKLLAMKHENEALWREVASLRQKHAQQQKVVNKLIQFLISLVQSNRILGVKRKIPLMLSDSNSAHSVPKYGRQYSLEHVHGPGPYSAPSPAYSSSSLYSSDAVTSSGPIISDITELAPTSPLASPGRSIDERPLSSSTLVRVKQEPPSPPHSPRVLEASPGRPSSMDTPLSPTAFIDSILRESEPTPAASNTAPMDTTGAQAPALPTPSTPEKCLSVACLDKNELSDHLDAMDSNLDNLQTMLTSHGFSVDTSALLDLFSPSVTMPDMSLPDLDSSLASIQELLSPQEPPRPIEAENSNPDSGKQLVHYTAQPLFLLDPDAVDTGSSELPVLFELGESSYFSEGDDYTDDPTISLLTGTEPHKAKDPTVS

[4] = target: T4, Corticotropin-releasing factor receptor 2/Corticotropin-releasing factor-binding protein (Homo sapiens, UniProt P24387+Q13324); assay: Dose Response confirmation of uHTS hits for small molecule antagonists of the CRF-binding protein and CRF-R2 receptor complex.; assay type: functional; conditions: read-out: IC50_Mean
T4 sequence (Q13324 whole entry): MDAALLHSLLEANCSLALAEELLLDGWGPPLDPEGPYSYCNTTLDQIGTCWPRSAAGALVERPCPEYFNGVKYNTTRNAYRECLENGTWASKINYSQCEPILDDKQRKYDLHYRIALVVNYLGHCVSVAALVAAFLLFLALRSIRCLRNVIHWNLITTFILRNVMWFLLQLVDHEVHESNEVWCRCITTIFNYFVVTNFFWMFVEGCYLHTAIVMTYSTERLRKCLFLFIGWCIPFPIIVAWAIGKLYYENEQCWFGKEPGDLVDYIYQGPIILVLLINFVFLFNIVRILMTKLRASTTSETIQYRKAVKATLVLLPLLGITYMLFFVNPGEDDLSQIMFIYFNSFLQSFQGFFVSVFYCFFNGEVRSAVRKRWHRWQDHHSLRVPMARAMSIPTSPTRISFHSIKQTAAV
T4 sequence (P24387 whole entry): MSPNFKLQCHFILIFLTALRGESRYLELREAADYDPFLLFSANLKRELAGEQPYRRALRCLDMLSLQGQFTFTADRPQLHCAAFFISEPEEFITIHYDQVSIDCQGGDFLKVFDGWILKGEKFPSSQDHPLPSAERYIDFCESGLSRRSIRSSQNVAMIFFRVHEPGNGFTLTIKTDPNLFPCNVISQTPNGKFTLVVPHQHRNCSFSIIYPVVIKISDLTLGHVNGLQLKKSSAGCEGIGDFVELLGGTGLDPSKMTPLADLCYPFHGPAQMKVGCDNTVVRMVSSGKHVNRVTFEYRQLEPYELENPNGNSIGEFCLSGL

[5] = target: T4, Corticotropin-releasing factor receptor 2/Corticotropin-releasing factor-binding protein; assay: activators of CRF receptor 2 with binding protein – uHTS hits, confirmation (AID 602473); assay type: functional; conditions: read-out: EC50_Mean
[6] = viability loss in HEK293T cells – cell-based, cherry-picks, cytotoxicity control for HIV Vif inhibitor project, dose response (AID 652208); assay type: functional
[7] = target: T5, Rac GTPase-activating protein 1 (Homo sapiens, UniProt Q9H0H5); assay: blockers of MgcRacGAP-driven Rac1 GTP hydrolysis – biochemical, ADP Hunter fluorescence, primary and confirmatory, confirmation (AID 624330); assay type: functional
T5 sequence (Q9H0H5 whole entry): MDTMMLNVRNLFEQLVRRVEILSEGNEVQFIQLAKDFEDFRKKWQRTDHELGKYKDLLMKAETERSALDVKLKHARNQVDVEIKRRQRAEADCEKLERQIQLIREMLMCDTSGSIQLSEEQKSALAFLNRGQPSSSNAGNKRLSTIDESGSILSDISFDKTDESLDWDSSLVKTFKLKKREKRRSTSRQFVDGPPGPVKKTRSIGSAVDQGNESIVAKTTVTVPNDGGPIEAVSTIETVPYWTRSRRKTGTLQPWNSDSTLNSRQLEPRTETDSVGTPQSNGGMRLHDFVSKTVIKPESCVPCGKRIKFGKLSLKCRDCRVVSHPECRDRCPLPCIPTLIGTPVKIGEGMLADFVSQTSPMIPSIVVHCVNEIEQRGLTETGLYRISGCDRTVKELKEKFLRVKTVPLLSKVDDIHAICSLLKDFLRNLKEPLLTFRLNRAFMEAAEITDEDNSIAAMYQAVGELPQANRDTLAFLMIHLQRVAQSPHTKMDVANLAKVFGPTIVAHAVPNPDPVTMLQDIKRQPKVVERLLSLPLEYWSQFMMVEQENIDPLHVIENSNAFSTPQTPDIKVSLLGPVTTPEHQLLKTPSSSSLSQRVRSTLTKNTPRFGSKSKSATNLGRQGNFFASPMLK

Albumin = Albumin (Bos taurus, UniProt P02769); assay: Counterscreen for inhibitors of T-cell receptor (TCR)-CD3 interaction: Fluorescence-based biochemical high throughput dose response assay to identify inhibitors of T-cell receptor (TCR)-CD3 interaction using a TAMRA-labeled BSA probe.; assay type: functional
[8] = target: T6, Histone-lysine N-methyltransferase NSD2 (Homo sapiens, UniProt O96028); assay type: biochemical
T6 sequence (O96028 whole entry): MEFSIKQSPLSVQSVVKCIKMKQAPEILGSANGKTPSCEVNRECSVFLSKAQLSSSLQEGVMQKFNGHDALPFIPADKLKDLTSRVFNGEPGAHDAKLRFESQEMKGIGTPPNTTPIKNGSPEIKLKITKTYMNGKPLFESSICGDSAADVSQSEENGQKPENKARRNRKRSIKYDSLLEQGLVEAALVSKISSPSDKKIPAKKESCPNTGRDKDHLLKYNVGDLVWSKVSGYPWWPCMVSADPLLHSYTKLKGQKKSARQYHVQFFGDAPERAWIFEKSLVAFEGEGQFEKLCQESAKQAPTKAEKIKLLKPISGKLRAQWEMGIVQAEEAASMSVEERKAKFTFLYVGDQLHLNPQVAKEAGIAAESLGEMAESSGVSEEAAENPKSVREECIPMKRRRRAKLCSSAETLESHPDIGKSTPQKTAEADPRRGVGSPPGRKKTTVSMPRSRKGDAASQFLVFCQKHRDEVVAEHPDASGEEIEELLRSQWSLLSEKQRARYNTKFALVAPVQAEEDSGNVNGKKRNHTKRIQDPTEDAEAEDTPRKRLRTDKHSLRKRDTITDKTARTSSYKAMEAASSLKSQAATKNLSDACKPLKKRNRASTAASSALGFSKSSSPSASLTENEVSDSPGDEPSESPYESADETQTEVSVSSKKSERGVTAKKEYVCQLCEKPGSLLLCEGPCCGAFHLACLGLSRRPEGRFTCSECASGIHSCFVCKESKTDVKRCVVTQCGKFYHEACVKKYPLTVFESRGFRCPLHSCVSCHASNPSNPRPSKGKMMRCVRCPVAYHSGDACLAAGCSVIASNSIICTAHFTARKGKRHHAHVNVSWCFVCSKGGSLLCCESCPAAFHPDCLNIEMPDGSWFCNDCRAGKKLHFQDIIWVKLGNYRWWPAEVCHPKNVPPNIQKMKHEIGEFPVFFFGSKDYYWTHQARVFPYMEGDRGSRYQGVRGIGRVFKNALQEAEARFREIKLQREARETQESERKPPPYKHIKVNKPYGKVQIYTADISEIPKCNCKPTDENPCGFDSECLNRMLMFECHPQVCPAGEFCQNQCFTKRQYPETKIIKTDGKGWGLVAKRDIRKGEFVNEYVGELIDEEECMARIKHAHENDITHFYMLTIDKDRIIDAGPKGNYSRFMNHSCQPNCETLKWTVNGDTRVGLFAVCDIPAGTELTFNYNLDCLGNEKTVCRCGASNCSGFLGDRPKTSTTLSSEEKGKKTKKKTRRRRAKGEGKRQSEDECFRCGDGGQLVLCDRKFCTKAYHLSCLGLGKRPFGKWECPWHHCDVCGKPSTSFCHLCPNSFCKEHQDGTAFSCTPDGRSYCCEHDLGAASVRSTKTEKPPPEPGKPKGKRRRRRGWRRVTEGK

[9] = T. cruzi growth inhibition in host cells, dose response, cell-based, plate reader, dry powder, set 2 (AID 652275); assay type: functional

Chain of Albumin (P02769 whole entry): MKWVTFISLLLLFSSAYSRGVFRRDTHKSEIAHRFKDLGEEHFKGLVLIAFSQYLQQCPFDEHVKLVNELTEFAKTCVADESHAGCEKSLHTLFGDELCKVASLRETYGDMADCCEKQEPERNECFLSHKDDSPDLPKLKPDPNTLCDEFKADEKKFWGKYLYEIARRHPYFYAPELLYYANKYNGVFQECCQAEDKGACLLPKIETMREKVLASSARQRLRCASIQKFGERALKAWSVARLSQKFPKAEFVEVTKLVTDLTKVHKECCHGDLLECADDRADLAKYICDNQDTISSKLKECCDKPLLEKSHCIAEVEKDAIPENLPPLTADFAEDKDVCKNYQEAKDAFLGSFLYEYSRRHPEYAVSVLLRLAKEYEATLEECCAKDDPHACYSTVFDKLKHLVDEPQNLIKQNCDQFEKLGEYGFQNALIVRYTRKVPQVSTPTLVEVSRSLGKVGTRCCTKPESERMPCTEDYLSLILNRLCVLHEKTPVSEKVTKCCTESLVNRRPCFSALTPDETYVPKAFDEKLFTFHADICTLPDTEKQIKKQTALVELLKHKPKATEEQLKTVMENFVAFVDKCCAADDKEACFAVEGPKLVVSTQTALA

In the case of `Cc1ccc2nc(C)cc(Nc3ccc4c(c3)OCCO4)c2c1`, the EC50 [1] is reported as 2.99 µM (active) and the AC50 [2] is reported as 37.2 µM (active).
In the case of `CC(Cc1ccccc1)NCC(=O)Nc1cc(N(C)C)nc2ccccc12` (centres undefined), the EC50 [3] is reported as > 260 µM (inactive) and the AC50 [2] is reported as 42.1 µM (active).
In the case of `Cc1ccc(-c2cc(C(=O)NCc3ccccn3)c3ccccc3n2)cc1C`, the IC50 [4] is reported as > 47.1 µM (inactive), the EC50 [5] is reported as > 53 µM (inactive) and the AC50 [6] is reported as 32.7 µM (active).
In the case of `O=C(COc1ccc(-n2cnnn2)cc1)Nc1cc(Cl)cc(Cl)c1`, the AC50 [6] is reported as 18.1 µM (active).
For `CN(C)C=O.O=C(O)c1ccccc1NS(=O)(=O)c1ccc(N/N=C/c2ccc(O)c(O)c2)c([N+](=O)[O-])c1`, the IC50 [7] was 60.7 µM (active), the IC50 (Albumin) was > 94.1 µM (inactive) and the AC50 [8] was 1.71 µM (active).
In the case of `COC[C@H](C)N1C[C@H](C)[C@@H](CN(C)Cc2ccc(Cl)cc2)Oc2c(NC(=O)c3ccncc3)cccc2C1=O`, the AC50 [9] is reported as 0.00139 µM (active).
For `COCC(=O)N1CCCCN2[C@@H](CO)[C@H](c3ccc(-c4cccc(C)c4)cc3)[C@@H]2C1`, the AC50 [9] was 1.42 µM (active).
With `O=C(c1ccncc1)N1CCCCN2[C@@H](CO)[C@H](c3ccc(-c4ccccc4)cc3)[C@@H]2C1` the AC50 [9] was 4.5 µM (active).
